Tests used:
Format in all cases: in vivo, human
[1] = test system: hsTnT; test: Plasma biomarker high-sensitivity troponin T; parameters: hs Troponin-T, geo-mean (95% CI): unit not given here
Description: (§1) Biomarkers reported include: N-terminal pro-brain natriuretic peptide (NT-proBNP), high-sensitivity troponin T (hsTnT) measured to assess myocardial safety; cystatin C measured to access renal function; the biologically active form of endothelin-1 (1–21), measured to assess vascular function. Venous blood samples were collected at 0 (pre-dose), 24, 48, and 54 h, Day 30, and Day 180. NT-proBNP, hsTnT, and cystatin C samples were collected in EDTA tubes while endothelin-1 samples were collected in EDTA tubes containing aprotinin. Plasma was immediately frozen at −70°C pending analysis in complete patient sets. Commercial biomarker kits were as follows: hsTnT from Roche Diagnostics GmbH, Germany; cystatin C from Gentian, Moss, Norway; and active endothelin-1 […] from Biomedica Medizinprodukte, Vienna, Austria.
(§2) For the biomarker analyses, baseline was defined as the pre-dose assessment on Day 1. Raw values as well as changes from baseline were summarized by treatment and time. Descriptive statistics included geometric mean and 95% CI. For geometric means of change from baseline, a ratio to baseline was used to determine percentage change by first calculating in the log domain and then back transforming using exponentiation.
(§3) Baseline corresponds to the value at day 1 pre-dose. For change from baseline, geometric mean and its CI are calculated for the value (post) to baseline ratio.

[2] = test system: patients with stable coronary artery disease; test: Adenosine stress perfusion CMR: myocardial blood flow and myocardial perfusion reserve
Description: (30 μg/kg/day) or matching placebo, using a computerized randomization system involving concealed treatment arms. The co-primary endpoints were the change from baseline in global myocardial perfusion reserve (MPR) measured by quantitative perfusion cardiac magnetic resonance (CMR) imaging and the change from baseline in augmentation index (AIx) measured by applanation tonometry. The primary endpoints of MPR and AIx were assessed at baseline and 47 h post-commencement of the infusion (Figure 1).
A standardized CMR protocol was acquired on 1.5 T (Siemens Avanto) or 3.0 T (Siemens Skyra and Verio) magnetic resonance imaging (MRI) scanners. The CMR protocol included standard localizers, long- and short-axis cine acquisitions, stress and rest first-pass perfusion, and late gadolinium enhancement (LGE) imaging as previously described.[24] For perfusion imaging, a saturation recovery prepared fast gradient echo sequence was used to acquire dynamic contrast-enhanced CMR during adenosine stress (140–280 µg/kg/min for 3 min) and rest, during first-pass of the IV administered contrast agent (Gadovist, 0.05 mmol/kg, 5 mL/s), followed by 20 mL saline injection (5 mL/s). Three short-axis planes through the left ventricle (basal, mid-ventricular, and apical) were obtained.
CMR image collection, blinding, and handling were managed by an independent imaging contract-research organization (CRO; VirtualScopics, Inc., Rochester, NY, USA). The CMR quantitative analyses were performed by blinded academic readers with >3 years of CMR experience (D.C., A.R., and C.B.). Cine images for ventricular volumes and mass and myocardial perfusion images were manually contoured (QMass, Medis, Leiden, Netherlands). Myocardial blood flow (MBF) was derived from stress and rest perfusion images using a Fermi deconvolution method,[25] implemented in MATLAB.[26] Global MPR was calculated from the ratio of global MBF evaluated at stress and at rest (MPR = stress MBF/rest MBF). Global MBF was calculated by averaging the MBF (mL/g/min) for basal, mid, and apical short-axis left ventricular slices. Ascending and descending aortic strain and distensibility were derived from manually contoured end-diastolic and end-systolic aortic cine images. Aortic strain (AS, unit free fraction) = [maximum aortic lumen area − minimum aortic lumen area]/minimum aortic lumen area. Aortic distensibility (AD, mmHg^−^1) = aortic strain/pulse pressure. Ascending aortic peak flow velocity (m/s) was derived from manually contoured phase-velocity encoding sequence images (QFlow, Medis, Leiden, Netherlands). The presence or absence of myocardial scar was qualitatively assessed on the LGE images.

[3] = test system: endothelin-1; test: Plasma biomarker endothelin-1; details: for Endothelin-1, geo-mean (95% CI): plasma
Description: as §1, §2, §3

[4] = 0 h (pre-dose baseline), mean ± SD, n=22
[5] = 0 h (pre-dose baseline), mean ± SD, n=24
[6] = 47 h post dose, mean ± SD, n=23
[7] = 47 h post dose, mean ± SD, n=24
[8] = Bayesian, criterion 1: increase between serelaxin and placebo greater than zero
[9] = Bayesian, criterion 2: increase between serelaxin and placebo greater than 20%
[10] = baseline to 47 h, 48 h IV infusion 30 µg/kg/day, ANCOVA, n=22
[11] = baseline to day 3, Bayesian analysis
[12] = baseline to day 3, Bayesian analysis, non-informative priors, n=22
[13] = change baseline to 47 h, ANCOVA

Substance: Serelaxin
- hs Troponin-T change from baseline, geometric mean ratio to baseline (95% CI) ([1]; 24 h, n=27): 0.90 (0.80, 1.01)
- hs Troponin-T change from baseline, geometric mean ratio to baseline (95% CI) ([1]; 48 h, n=28): 0.87 (0.79, 0.95)
- hs Troponin-T change from baseline, geometric mean ratio to baseline (95% CI) ([1]; 54 h, n=27): 1.02 (0.85, 1.24)
- hs Troponin-T change from baseline, geometric mean ratio to baseline (95% CI) ([1]; Day 30, n=29): 0.89 (0.78, 1.02)
- hs Troponin-T change from baseline, geometric mean ratio to baseline (95% CI) ([1]; Day 180, n=29): 1.09 (0.91, 1.31)
- hs Troponin-T, geo-mean (95% CI) ([1]; plasma, 0 h (pre-dose baseline), n=29): 0.0076 (0.0057, 0.0102)
- hs Troponin-T, geo-mean (95% CI) ([1]; plasma, 24 h, n=27): 0.0064 (0.0049, 0.0084)
- hs Troponin-T, geo-mean (95% CI) ([1]; plasma, 48 h, n=28): 0.0066 (0.0049, 0.0089)
- hs Troponin-T, geo-mean (95% CI) ([1]; plasma, 54 h, n=27): 0.0079 (0.0057, 0.0110)
- hs Troponin-T, geo-mean (95% CI) ([1]; plasma, Day 30, n=29): 0.0068 (0.0053, 0.0088)
- hs Troponin-T, geo-mean (95% CI) ([1]; plasma, Day 180, n=29): 0.0083 (0.0066, 0.0105)
- hsTnT geometric mean at baseline ([1]; plasma, pre-dose baseline, serelaxin group): 7.6 ng/L
- Apical MBF rest, absolute value [2, 4]: 1.41 ± 0.43 (22) mL/g/min
- Apical perfusion reserve index, absolute value [2, 4]: 2.24 ± 0.89 (22)
- Basal MBF rest, absolute value [2, 4]: 1.16 ± 0.39 (22) mL/g/min
- Basal perfusion reserve index, absolute value [2, 4]: 2.25 ± 0.92 (22)
- Global MPR, absolute value [2, 4]: 2.25 ± 0.88 (22)
- Mean global MBF rest, absolute value [2, 4]: 1.26 ± 0.37 (22) mL/g/min
- Mid MBF rest, absolute value [2, 4]: 1.22 ± 0.37 (22) mL/g/min
- Mid perfusion reserve index, absolute value [2, 4]: 2.24 ± 0.98 (22)
- Apical MBF stress, absolute value [2, 5]: 2.82 ± 1.00 (24) mL/g/min
- Basal MBF stress, absolute value [2, 5]: 2.34 ± 0.90 (24) mL/g/min
- Mean global MBF stress, absolute value [2, 5]: 2.54 ± 0.87 (24) mL/g/min
- Mid MBF stress, absolute value [2, 5]: 2.45 ± 0.84 (24) mL/g/min
- Apical MBF stress, absolute value [2, 6]: 2.66 ± 0.73 (23) mL/g/min
- Apical perfusion reserve index, absolute value [2, 6]: 2.01 ± 0.60 (23)
- Basal MBF stress, absolute value [2, 6]: 2.14 ± 0.84 (23) mL/g/min
- Global MPR, absolute value [2, 6]: 1.98 ± 0.59 (23)
- Mean global MBF stress, absolute value [2, 6]: 2.32 ± 0.67 (23) mL/g/min
- Mid MBF stress, absolute value [2, 6]: 2.16 ± 0.70 (23) mL/g/min
- Mid perfusion reserve index, absolute value [2, 6]: 1.93 ± 0.70 (23)
- Apical MBF rest, absolute value [2, 7]: 1.41 ± 0.34 (24) mL/g/min
- Basal MBF rest, absolute value [2, 7]: 1.13 ± 0.39 (24) mL/g/min
- Mean global MBF rest, absolute value [2, 7]: 1.24 ± 0.32 (24) mL/g/min
- Mid MBF rest, absolute value [2, 7]: 1.17 ± 0.31 (24) mL/g/min
- Mean global MBF rest, probability of success Pr (Criterion 1|data) [2, 8]: 0.80
- Mean global MBF stress, probability of success Pr (Criterion 1|data) [2, 8]: 0.38
- Global MPR, probability of success Pr (Criterion 1|data) ([2]; Bayesian, criterion 1: increase in MPRI between serelaxin and placebo greater than zero): 0.22
- Mean global MBF rest, probability of success Pr (Criterion 2|data) [2, 9]: 0.0014
- Mean global MBF stress, probability of success Pr (Criterion 2|data) [2, 9]: 0.0006
- Global MPR, probability of success Pr (Criterion 2|data) ([2]; Bayesian, criterion 2: increase in MPRI between serelaxin and placebo greater than 20%): 0.0002
- Global MPR, change from baseline (adjusted mean) [2, 10]: -0.24
- Mean global MBF rest, change from baseline (adjusted mean) [2, 10]: 0.01 mL/g/min
- Mid MBF rest, change from baseline (adjusted mean) ([2]; baseline to 47 h, ANCOVA, n=22): -0.01 mL/g/min
- Mid perfusion reserve index, change from baseline (adjusted mean) ([2]; baseline to 47 h, ANCOVA, n=22): -0.26
- Mid MBF stress, change from baseline (adjusted mean) ([2]; baseline to 47 h, ANCOVA, n=23): -0.27 mL/g/min
- Mean global MBF stress, change from baseline (adjusted mean) ([2]; baseline to 47 h, adenosine stress, 48 h IV infusion 30 µg/kg/day, ANCOVA, n=23): -0.22 mL/g/min
- Global MPR, estimate of difference (serelaxin vs placebo), posterior median [2, 11]: -0.11
- Mean global MBF rest, estimate of difference (serelaxin vs placebo), posterior median [2, 11]: 0.05 mL/g/min
- Mean global MBF stress, estimate of difference (serelaxin vs placebo), posterior median [2, 11]: -0.05 mL/g/min
- Global MPR, change from baseline, within treatment posterior median [2, 12]: -0.25
- Mean global MBF rest, change from baseline, within treatment posterior median [2, 12]: 0.01 mL/g/min
- Mean global MBF stress, change from baseline, within treatment posterior median ([2]; baseline to day 3, Bayesian analysis, non-informative priors, n=23): -0.22 mL/g/min
- Mean global MBF rest, adjusted mean difference serelaxin versus placebo ([2]; change baseline to 47 h, 48 h IV infusion 30 µg/kg/day, ANCOVA): 0.05 mL/g/min
- Global MPR, adjusted mean difference serelaxin versus placebo [2, 13]: -0.11
- Mid MBF rest, adjusted mean difference serelaxin versus placebo [2, 13]: 0.06 mL/g/min
- Mid MBF stress, adjusted mean difference serelaxin versus placebo [2, 13]: -0.11 mL/g/min
- Mid perfusion reserve index, adjusted mean difference serelaxin versus placebo [2, 13]: -0.19
- Mean global MBF stress, adjusted mean difference serelaxin versus placebo ([2]; change baseline to 47 h, adenosine stress, ANCOVA): -0.05 mL/g/min
- Endothelin-1 change from baseline, geometric mean ratio to baseline (95% CI) ([3]; 24 h, n=27): 0.82 (0.68, 0.99)
- Endothelin-1 change from baseline, geometric mean ratio to baseline (95% CI) ([3]; 48 h, n=28): 0.82 (0.70, 0.96)
- Endothelin-1 change from baseline, geometric mean ratio to baseline (95% CI) ([3]; 48 h, n=28, listed as serelaxin): 0.82
- Endothelin-1 change from baseline, geometric mean ratio to baseline (95% CI) ([3]; 54 h, n=26): 0.84 (0.73, 0.96)
- Endothelin-1 change from baseline, geometric mean ratio to baseline (95% CI) ([3]; Day 30, n=29): 0.93 (0.77, 1.13)
- Endothelin-1 change from baseline, geometric mean ratio to baseline (95% CI) ([3]; Day 180, n=29): 0.88 (0.69, 1.12)
- Endothelin-1, geo-mean (95% CI) ([3]; 0 h (pre-dose baseline), n=29): 0.874 (0.630, 1.212) pmol/L
- Endothelin-1, geo-mean (95% CI) ([3]; 24 h, n=27): 0.6732 (0.4626, 0.9796) pmol/L
- Endothelin-1, geo-mean (95% CI) ([3]; 48 h, n=28): 0.6835 (0.4647, 1.0054) pmol/L
- Endothelin-1, geo-mean (95% CI) ([3]; 54 h, n=26): 0.7535 (0.5098, 1.1138) pmol/L
- Endothelin-1, geo-mean (95% CI) ([3]; Day 30, n=29): 0.8145 (0.5881, 1.1279) pmol/L
- Endothelin-1, geo-mean (95% CI) ([3]; Day 180, n=29): 0.7664 (0.5436, 1.0806) pmol/L
